Results: patent US10961231B2, “NTCP inhibitors” (National Institute of Biological Sciences, Beijing, priority 2018, dated 2021)

Molecular target: T1, NTCP (Homo sapiens, UniProt Q14973)
T1 sequence (Q14973 1-349): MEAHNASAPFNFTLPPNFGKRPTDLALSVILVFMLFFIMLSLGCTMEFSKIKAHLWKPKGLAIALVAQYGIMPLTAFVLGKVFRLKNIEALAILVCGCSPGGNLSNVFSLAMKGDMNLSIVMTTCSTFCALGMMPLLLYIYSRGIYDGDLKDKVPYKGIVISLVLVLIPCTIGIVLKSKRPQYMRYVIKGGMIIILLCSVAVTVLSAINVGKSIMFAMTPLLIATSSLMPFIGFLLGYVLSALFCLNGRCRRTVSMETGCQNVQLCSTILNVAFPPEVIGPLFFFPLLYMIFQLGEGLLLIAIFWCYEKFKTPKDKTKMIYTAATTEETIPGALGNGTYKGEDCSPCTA
Test: [3H]-TCA uptake assay (NTCP inhibition)
Type: cell-based
Summary of the method: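 Read-out is liquid scintillation counting of Triton X-100 lysates after 15 min, 37° C uptake of 1 μM [3H]-taurocholate in Na+ Ringer's buffer (145 mM Na). Beforehand, PTH and HepG2-NTCP cells had 24 h in PMM for NTCP induction and 2 h of compound or DMSO treatment.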

[1] = given as a range, marked * (asterisk not explained)
[2] = IC50, given as a range, marked * (asterisk not explained)
[3] = given as a range, assay not given

| Structure (SMILES) | IC50 [2] | IC50 [3] | other results |
| --- | --- | --- | --- |
| CCC1NC(=O)C(C2OC(Oc3cc(OC)cc(OCC4CCOCC4)c3)CC2C)N(C)C(=O)C(C(C)C)N(C)C(=O)C(CC(C)C)N(C)C(=O)C(CC(C)C)N(C)C(=O)C(C)NC(=O)C(C)NC(=O)C(CC(C)C)N(C)C(=O)C(C(C)C)NC(=O)C(CC(C)C)N(C)C(=O)CN(C)C1=O (stereo not drawn) [Compound 66-o] | – | – | IC50 [1]: 1000 to 100000 nM |
| CCC1NC(=O)C(C2OC(Oc3ccc(Cl)c(OCCOC)c3)CC2C)N(C)C(=O)C(C(C)C)N(C)C(=O)C(CC(C)C)N(C)C(=O)C(CC(C)C)N(C)C(=O)C(C)NC(=O)C(C)NC(=O)C(CC(C)C)N(C)C(=O)C(C(C)C)NC(=O)C(CC(C)C)N(C)C(=O)CN(C)C1=O (stereo not drawn) [Compound 45A-o] | 1000 to 100000 nM | – | – |
| CCC1NC(=O)C(C2OC(Oc3cc(OCCOC)cc(OCCOC)c3)CC2C)N(C)C(=O)C(C(C)C)N(C)C(=O)C(CC(C)C)N(C)C(=O)C(CC(C)C)N(C)C(=O)C(C)NC(=O)C(C)NC(=O)C(CC(C)C)N(C)C(=O)C(C(C)C)NC(=O)C(CC(C)C)N(C)C(=O)CN(C)C1=O (stereo not drawn) [Compound 73-o] | – | – | IC50 [1]: 1000 to 100000 nM |
| CCC1NC(=O)C(C2OC(SC(C)c3ccccc3)CC2C)N(C)C(=O)C(C(C)C)N(C)C(=O)C(CC(C)C)N(C)C(=O)C(CC(C)C)N(C)C(=O)C(C)NC(=O)C(C)NC(=O)C(CC(C)C)N(C)C(=O)C(C(C)C)NC(=O)C(CC(C)C)N(C)C(=O)CN(C)C1=O (stereo not drawn) [Compound 78A-s] | 1000 to 100000 nM | – | – |
| CCC1NC(=O)C(C2OC(Sc3ccc(Cl)c(OC)c3)CC2C)N(C)C(=O)C(C(C)C)N(C)C(=O)C(CC(C)C)N(C)C(=O)C(CC(C)C)N(C)C(=O)C(C)NC(=O)C(C)NC(=O)C(CC(C)C)N(C)C(=O)C(C(C)C)NC(=O)C(CC(C)C)N(C)C(=O)CN(C)C1=O [Compound 40A, [2-((2R,3R)-5-(4-chloro-3-methoxyphenylthio)-3-methyltetrahydrofuran-2-yl)-2-(methylamino)acetic acid]^1-cyclosporin A] | – | 1 to 1000 nM | – |
| CCC1NC(=O)C(C2OC(OCc3ccc(-n4cccn4)cc3)CC2C)N(C)C(=O)C(C(C)C)N(C)C(=O)C(CC(C)C)N(C)C(=O)C(CC(C)C)N(C)C(=O)C(C)NC(=O)C(C)NC(=O)C(CC(C)C)N(C)C(=O)C(C(C)C)NC(=O)C(CC(C)C)N(C)C(=O)CN(C)C1=O [Compound 77A, [2-((2R,3R)-5-(4-(1H-pyrazol-1-yl)benzyloxy)-3-methyltetrahydrofuran-2-yl)-2-(methylamino)acetic acid]^1-cyclosporin A] | – | – | IC50 (IC50, given as a range, assay not given): 1000 to 10000 nM |
| CCC1NC(=O)C(C2OC(Sc3cc(OC)cc(OCc4ccc(F)cc4)c3)CC2C)N(C)C(=O)C(C(C)C)N(C)C(=O)C(CC(C)C)N(C)C(=O)C(CC(C)C)N(C)C(=O)C(C)NC(=O)C(C)NC(=O)C(CC(C)C)N(C)C(=O)C(C(C)C)NC(=O)C(CC(C)C)N(C)C(=O)CN(C)C1=O [Compound 60A, [2-((2R,3R)-5-(3-(4-fluorobenzyloxy)-5-methoxyphenylthio)-3-methyltetrahydrofuran-2-yl)-2-(methylamino)acetic acid]^1-cyclosporin A] | – | 1 to 1000 nM | – |
| CCC1NC(=O)C(C2OC(OCc3cc(Cl)c(Cl)cc3Cl)CC2C)N(C)C(=O)C(C(C)C)N(C)C(=O)C(CC(C)C)N(C)C(=O)C(CC(C)C)N(C)C(=O)C(C)NC(=O)C(C)NC(=O)C(CC(C)C)N(C)C(=O)C(C(C)C)NC(=O)C(CC(C)C)N(C)C(=O)CN(C)C1=O (stereo not drawn) [Compound 104] | 1000 to 100000 nM | – | – |
| CCC1NC(=O)C(C2OC(OCc3cc(Cl)ccc3Cl)CC2C)N(C)C(=O)C(C(C)C)N(C)C(=O)C(CC(C)C)N(C)C(=O)C(CC(C)C)N(C)C(=O)C(C)NC(=O)C(C)NC(=O)C(CC(C)C)N(C)C(=O)C(C(C)C)NC(=O)C(CC(C)C)N(C)C(=O)CN(C)C1=O [98A + B(1:1), [2-((2R,3R)-5-(2,5-dichlorobenzyloxy)-3-methyltetrahydrofuran-2-yl)-2-(methylamino)acetic acid]^1-cyclosporin A] | – | 1 to 1000 nM | – |
| CCC1NC(=O)C(C2OC(Oc3cccc(N(C)CC)c3)CC2C)N(C)C(=O)C(C(C)C)N(C)C(=O)C(CC(C)C)N(C)C(=O)C(CC(C)C)N(C)C(=O)C(C)NC(=O)C(C)NC(=O)C(CC(C)C)N(C)C(=O)C(C(C)C)NC(=O)C(CC(C)C)N(C)C(=O)CN(C)C1=O (stereo not drawn) [Compound 49A-o] | 1000 to 100000 nM | – | – |
| CCC1NC(=O)C(C2OC(OC(C)c3ccc(Cl)cc3)CC2C)N(C)C(=O)C(C(C)C)N(C)C(=O)C(CC(C)C)N(C)C(=O)C(CC(C)C)N(C)C(=O)C(C)NC(=O)C(C)NC(=O)C(CC(C)C)N(C)C(=O)C(C(C)C)NC(=O)C(CC(C)C)N(C)C(=O)CN(C)C1=O (stereo not drawn) [Compound 102] | 1000 to 100000 nM | – | – |
| CCC1NC(=O)C(C2OC(Sc3cccc(OC(C)c4ccccc4)c3)CC2C)N(C)C(=O)C(C(C)C)N(C)C(=O)C(CC(C)C)N(C)C(=O)C(CC(C)C)N(C)C(=O)C(C)NC(=O)C(C)NC(=O)C(CC(C)C)N(C)C(=O)C(C(C)C)NC(=O)C(CC(C)C)N(C)C(=O)CN(C)C1=O [Compound 34A, [2-((2R,3R)-3-methyl-5-(3-(1-phenylethoxy)phenylthio)tetrahydrofuran-2-yl)-2-(methylamino)acetic acid]^1-cyclosporin A] | – | 1 to 1000 nM | – |
| CCC1NC(=O)C(C2OC(Sc3ccc4ccccc4c3)CC2C)N(C)C(=O)C(C(C)C)N(C)C(=O)C(CC(C)C)N(C)C(=O)C(CC(C)C)N(C)C(=O)C(C)NC(=O)C(C)NC(=O)C(CC(C)C)N(C)C(=O)C(C(C)C)NC(=O)C(CC(C)C)N(C)C(=O)CN(C)C1=O (stereo not drawn) [Compound 62] | 1000 to 100000 nM | – | – |
| CCC1NC(=O)C(C2OC(Sc3cccc(OCc4ccccc4)c3)CC2C)N(C)C(=O)C(C(C)C)N(C)C(=O)C(CC(C)C)N(C)C(=O)C(CC(C)C)N(C)C(=O)C(C)NC(=O)C(C)NC(=O)C(CC(C)C)N(C)C(=O)C(C(C)C)NC(=O)C(CC(C)C)N(C)C(=O)CN(C)C1=O [Compound 12A, [2-((2R,3R)-5-(3-(benzyloxy)phenylthio)-3-methyltetrahydrofuran-2-yl)-2-(methylamino)acetic acid]^1-cyclosporin A] | – | 1 to 1000 nM | – |
| CCC1NC(=O)C(C2OC(Oc3cccc(OCc4ccccn4)c3)CC2C)N(C)C(=O)C(C(C)C)N(C)C(=O)C(CC(C)C)N(C)C(=O)C(CC(C)C)N(C)C(=O)C(C)NC(=O)C(C)NC(=O)C(CC(C)C)N(C)C(=O)C(C(C)C)NC(=O)C(CC(C)C)N(C)C(=O)CN(C)C1=O (stereo not drawn) [Compound 52A-o] | 1000 to 100000 nM | – | – |
| CCC1NC(=O)C(C2OC(Sc3cccc(OCc4ccc(F)c(Cl)c4)c3)CC2C)N(C)C(=O)C(C(C)C)N(C)C(=O)C(CC(C)C)N(C)C(=O)C(CC(C)C)N(C)C(=O)C(C)NC(=O)C(C)NC(=O)C(CC(C)C)N(C)C(=O)C(C(C)C)NC(=O)C(CC(C)C)N(C)C(=O)CN(C)C1=O [Compound 22A, [2-((2R,3R)-5-(3-(3-chloro-4-fluorobenzyloxy)phenylthio)-3-methyltetrahydrofuran-2-yl)-2-(methylamino)acetic acid]^1-cyclosporin A] | – | 1 to 1000 nM | – |
| CCC1NC(=O)C(C2OC(Oc3cc(OC)cc(OCC4CCN(C)CC4)c3)CC2C)N(C)C(=O)C(C(C)C)N(C)C(=O)C(CC(C)C)N(C)C(=O)C(CC(C)C)N(C)C(=O)C(C)NC(=O)C(C)NC(=O)C(CC(C)C)N(C)C(=O)C(C(C)C)NC(=O)C(CC(C)C)N(C)C(=O)CN(C)C1=O (stereo not drawn) [Compound 70-o] | – | – | IC50 [1]: 1000 to 100000 nM |
| CCC1NC(=O)C(C2OC(Sc3cccc(OC)c3)CC2C)N(C)C(=O)C(C(C)C)N(C)C(=O)C(CC(C)C)N(C)C(=O)C(CC(C)C)N(C)C(=O)C(C)NC(=O)C(C)NC(=O)C(CC(C)C)N(C)C(=O)C(C(C)C)NC(=O)C(CC(C)C)N(C)C(=O)CN(C)C1=O [Compound 28A, [2-((2R,3R)-5-(3-methoxyphenylthio)-3-methyltetrahydrofuran-2-yl)-2-(methylamino)acetic acid]^1-cyclosporin A] | – | 1 to 1000 nM | – |
